14 compounds from patent US10781211B2, “Spirocycle compounds and methods of making and using same” (Lundbeck La Jolla Research Center, Inc., priority 2016, dated 2020) can be followed below.

Holding throughout (assay type): in vivo
What all share (conditions): 5 mg/kg oral gavage

Assay [1] has as its target FAAH (Mus musculus (Mouse), UniProt O08914). The assay is described as follows: Mouse brain proteomes from inhibitor treated mice (oral gavage, sacrifice 4 h after administration, ABPP analysis), FAAH. An outline of the steps: (§1)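 Mice (wild-type C57Bl/6J) receive inhibitor by oral gavage, e.g. in PEG400/Ethanol/PBS (7/2/1). Each animal is killed 4 h later. Brain proteomes are prepared and analyzed by ABPP, giving % inhibition at 5 mg/kg.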

Assay [2] concerns the target MAGL (Mus musculus (Mouse), UniProt O35678). In words: Mouse brain proteomes from inhibitor treated mice (oral gavage, sacrifice 4 h after administration, ABPP analysis). An outline of the steps:
as §1

Assay [3] addresses ABHD6 (Mus musculus (Mouse), UniProt Q8R2Y0). In words: Mouse brain proteomes from inhibitor treated mice (oral gavage, sacrifice 4 h after administration, ABPP analysis), ABHD6. An outline of the steps: as §1

ABHD6, sequence (Q8R2Y0 whole entry): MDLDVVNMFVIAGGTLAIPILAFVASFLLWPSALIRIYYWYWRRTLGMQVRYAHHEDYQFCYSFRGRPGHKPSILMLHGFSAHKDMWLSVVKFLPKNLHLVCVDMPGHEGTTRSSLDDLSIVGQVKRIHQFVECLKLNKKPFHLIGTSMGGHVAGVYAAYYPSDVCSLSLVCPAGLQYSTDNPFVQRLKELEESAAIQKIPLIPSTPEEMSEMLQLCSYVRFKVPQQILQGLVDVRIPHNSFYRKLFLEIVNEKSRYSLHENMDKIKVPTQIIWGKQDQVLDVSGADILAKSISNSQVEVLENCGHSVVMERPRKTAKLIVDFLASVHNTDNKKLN
MAGL, sequence (O35678 whole entry): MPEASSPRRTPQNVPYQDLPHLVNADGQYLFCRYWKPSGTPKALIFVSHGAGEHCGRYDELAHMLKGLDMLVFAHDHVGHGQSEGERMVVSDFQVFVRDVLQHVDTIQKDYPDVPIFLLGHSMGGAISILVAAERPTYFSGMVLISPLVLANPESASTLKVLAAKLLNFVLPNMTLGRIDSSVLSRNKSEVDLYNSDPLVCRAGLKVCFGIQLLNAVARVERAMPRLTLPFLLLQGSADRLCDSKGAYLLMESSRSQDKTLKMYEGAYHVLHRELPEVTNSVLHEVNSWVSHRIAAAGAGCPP
FAAH, sequence (O08914 whole entry): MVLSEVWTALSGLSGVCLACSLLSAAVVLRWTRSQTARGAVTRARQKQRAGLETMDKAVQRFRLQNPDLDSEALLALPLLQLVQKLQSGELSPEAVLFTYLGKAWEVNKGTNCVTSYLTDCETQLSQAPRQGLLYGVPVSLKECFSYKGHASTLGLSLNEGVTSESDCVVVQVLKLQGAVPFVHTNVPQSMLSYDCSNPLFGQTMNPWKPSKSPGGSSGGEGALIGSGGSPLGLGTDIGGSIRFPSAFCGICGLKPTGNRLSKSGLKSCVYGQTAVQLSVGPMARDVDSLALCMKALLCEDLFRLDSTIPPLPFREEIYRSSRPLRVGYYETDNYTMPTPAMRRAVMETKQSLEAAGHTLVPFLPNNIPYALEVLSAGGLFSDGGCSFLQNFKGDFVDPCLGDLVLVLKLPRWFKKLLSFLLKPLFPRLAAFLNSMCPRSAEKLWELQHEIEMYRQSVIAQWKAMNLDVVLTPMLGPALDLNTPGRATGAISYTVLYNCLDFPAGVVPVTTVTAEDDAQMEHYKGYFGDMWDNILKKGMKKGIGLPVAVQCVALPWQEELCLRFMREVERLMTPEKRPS

Consider `Cc1c(CN2CCCC23CCN(C(=O)OC(C(F)(F)F)C(F)(F)F)CC3)cccc1N1CC2CCC(C1)O2` [Example 86, 1,1,1,3,3,3-Hexafluoropropan-2-yl 1-(3-(8-oxa-3-azabicyclo[3.2.1]octan-3-yl)-2-methylbenzyl)-1,8-diazaspiro[4.5]decane-8-carboxylate], for which the “FAAH % Inh 5 mg/kg (mouse)” value in assay [1] is “# (# is < 25%)”. Besides, the “MAGL % Inh 5 mg/kg (mouse)” value in assay [2] is “### (### is ≥ 75%)”. In assay [3], the “ABHD6 % Inh 5 mg/kg (mouse)” value is on record as “# (# is < 25%)”.
`CS(=O)(=O)N1CCN(c2cc(C(F)(F)F)ccc2CN2CCCC23CCN(C(=O)OC(C(F)(F)F)C(F)(F)F)CC3)CC1` [Example 89, 1,1,1,3,3,3-Hexafluoropropan-2-yl 1-(2-(4-(methylsulfonyl)piperazin-1-yl)-4-(trifluoromethyl)benzyl)-1,8-diazaspiro[4.5]decane-8-carboxylate]: in assay [1], the “FAAH % Inh 5 mg/kg (mouse)” value is “# (# is < 25%)”. In assay [2], the “MAGL % Inh 5 mg/kg (mouse)” value is listed as “# (# is < 25%)”. Further, the “ABHD6 % Inh 5 mg/kg (mouse)” value in assay [3] is on record as “# (# is < 25%)”.
With `O=C(OC(C(F)(F)F)C(F)(F)F)N1CCC2(CCCN2Cc2ccc(C(F)(F)F)cc2N2CCC(F)CC2)CC1` [Example 91, 1,1,1,3,3,3-Hexafluoropropan-2-yl 1-(2-(4-fluoropiperidin-1-yl)-4-(trifluoromethyl)benzyl)-1,8-diazaspiro[4.5]decane-8-carboxylate], in assay [1], the “FAAH % Inh 5 mg/kg (mouse)” value is reported as “# (# is < 25%)”. In addition, in assay [2], the “MAGL % Inh 5 mg/kg (mouse)” value is recorded as “### (### is ≥ 75%)”. Also, the “ABHD6 % Inh 5 mg/kg (mouse)” value in assay [3] was “# (# is < 25%)”.
Take `CC(=O)NC1CCN(c2cc(C(F)(F)F)ccc2CN2CCCC23CCN(C(=O)OC(C(F)(F)F)C(F)(F)F)CC3)CC1` [Example 93, 1,1,1,3,3,3-Hexafluoropropan-2-yl 1-(2-(4-acetamidopiperidin-1-yl)-4-(trifluoromethyl)benzyl)-1,8-diazaspiro[4.5]decane-8-carboxylate]: the “FAAH % Inh 5 mg/kg (mouse)” value in assay [1] is “# (# is < 25%)”. Moreover, in assay [2], the “MAGL % Inh 5 mg/kg (mouse)” value is given as “### (### is ≥ 75%)”. The “ABHD6 % Inh 5 mg/kg (mouse)” value in assay [3] is reported as “# (# is < 25%)”.
In the case of `CS(=O)(=O)NC1CCN(c2cc(C(F)(F)F)ccc2CN2CCCC23CCN(C(=O)OC(C(F)(F)F)C(F)(F)F)CC3)CC1` [Example 94, 1,1,1,3,3,3-Hexafluoropropan-2-yl 1-(2-(4-(methylsulfonamido)piperidin-1-yl)-4-(trifluoromethyl)benzyl)-1,8-diazaspiro[4.5]decane-8-carboxylate], the “FAAH % Inh 5 mg/kg (mouse)” value in assay [1] is reported as “# (# is < 25%)”. Also, in assay [2], the “MAGL % Inh 5 mg/kg (mouse)” value is recorded as “# (# is < 25%)”. In assay [3], the “ABHD6 % Inh 5 mg/kg (mouse)” value was “# (# is < 25%)”.
In the case of `O=C(OC(C(F)(F)F)C(F)(F)F)N1CCC2(CCCN2Cc2ccc(C(F)(F)F)cc2N2CCC2)CC1` [Example 96, 1,1,1,3,3,3-Hexafluoropropan-2-yl 1-(2-(azetidin-1-yl)-4-(trifluoromethyl)benzyl)-1,8-diazaspiro[4.5]decane-8-carboxylate], the “FAAH % Inh 5 mg/kg (mouse)” value in assay [1] is on record as “# (# is < 25%)”. Also, in assay [2], the “MAGL % Inh 5 mg/kg (mouse)” value is “### (### is ≥ 75%)”. The “ABHD6 % Inh 5 mg/kg (mouse)” value in assay [3] is on record as “# (# is < 25%)”.
Take `O=C(OC(C(F)(F)F)C(F)(F)F)N1CCC2(CCCN2Cc2ccc(C(F)(F)F)cc2N2CC3COCC3C2)CC1` (stereo not drawn) [Example 97, 1,1,1,3,3,3-Hexafluoropropan-2-yl 1-(2-(tetrahydro-1H-furo[3,4-c]pyrrol-5(3H)-yl)-4-(trifluoromethyl)benzyl)-1,8-diazaspiro[4.5]decane-8-carboxylate]: the “FAAH % Inh 5 mg/kg (mouse)” value in assay [1] was “# (# is < 25%)”. Further, the “MAGL % Inh 5 mg/kg (mouse)” value in assay [2] was “### (### is ≥ 75%)”. In assay [3], the “ABHD6 % Inh 5 mg/kg (mouse)” value is recorded as “# (# is < 25%)”.
Take `CC(=O)N1CCN(c2cc(Cl)ccc2CN2CCCC23CCN(C(=O)OC(C(F)(F)F)C(F)(F)F)CC3)CC1` [Example 99, 1,1,1,3,3,3-Hexafluoropropan-2-yl 1-(2-(4-acetylpiperazin-1-yl)-4-chlorobenzyl)-1,8-diazaspiro[4.5]decane-8-carboxylate]: the “FAAH % Inh 5 mg/kg (mouse)” value in assay [1] was “# (# is < 25%)”. Also, the “MAGL % Inh 5 mg/kg (mouse)” value in assay [2] is listed as “### (### is ≥ 75%)”. Besides, in assay [3], the “ABHD6 % Inh 5 mg/kg (mouse)” value is on record as “# (# is < 25%)”.
Regarding `CS(=O)(=O)N1CCN(c2cc(Cl)ccc2CN2CCCC23CCN(C(=O)OC(C(F)(F)F)C(F)(F)F)CC3)CC1` [Example 100, 1,1,1,3,3,3-Hexafluoropropan-2-yl 1-(4-chloro-2-(4-(methylsulfonyl)piperazin-1-yl)benzyl)-1,8-diazaspiro[4.5]decane-8-carboxylate], in assay [1], the “FAAH % Inh 5 mg/kg (mouse)” value is “# (# is < 25%)”. In addition, the “MAGL % Inh 5 mg/kg (mouse)” value in assay [2] is “### (### is ≥ 75%)”. In assay [3], the “ABHD6 % Inh 5 mg/kg (mouse)” value was “# (# is < 25%)”.
Turning to `O=C(OC(C(F)(F)F)C(F)(F)F)N1CCC2(CCCN2Cc2ccc(Cl)cc2N2CCC(F)(F)CC2)CC1` [Example 101, 1,1,1,3,3,3-Hexafluoropropan-2-yl 1-(4-chloro-2-(4,4-difluoropiperidin-1-yl)benzyl)-1,8-diazaspiro[4.5]decane-8-carboxylate], the “FAAH % Inh 5 mg/kg (mouse)” value in assay [1] is “# (# is < 25%)”. Besides, the “MAGL % Inh 5 mg/kg (mouse)” value in assay [2] was “### (### is ≥ 75%)”. In addition, in assay [3], the “ABHD6 % Inh 5 mg/kg (mouse)” value is reported as “# (# is < 25%)”.
Take `O=C(OC(C(F)(F)F)C(F)(F)F)N1CCC2(CCCN2Cc2ccc(Cl)cc2N2CCC(F)CC2)CC1` [Example 102, 1,1,1,3,3,3-Hexafluoropropan-2-yl 1-(4-chloro-2-(4-fluoropiperidin-1-yl)benzyl)-1,8-diazaspiro[4.5]decane-8-carboxylate]: the “FAAH % Inh 5 mg/kg (mouse)” value in assay [1] is given as “# (# is < 25%)”. Moreover, the “MAGL % Inh 5 mg/kg (mouse)” value in assay [2] was “### (### is ≥ 75%)”. In addition, the “ABHD6 % Inh 5 mg/kg (mouse)” value in assay [3] is “# (# is < 25%)”.
Consider `CS(=O)(=O)NC1CCN(c2cc(Cl)ccc2CN2CCCC23CCN(C(=O)OC(C(F)(F)F)C(F)(F)F)CC3)CC1` [Example 105, 1,1,1,3,3,3-Hexafluoropropan-2-yl 1-(4-chloro-2-(4-(methylsulfonamido)piperidin-1-yl)benzyl)-1,8-diazaspiro[4.5]decane-8-carboxylate], for which the “FAAH % Inh 5 mg/kg (mouse)” value in assay [1] is “# (# is < 25%)”. In addition, the “MAGL % Inh 5 mg/kg (mouse)” value in assay [2] is given as “# (# is < 25%)”. In assay [3], the “ABHD6 % Inh 5 mg/kg (mouse)” value is reported as “# (# is < 25%)”.
Take `O=C(OC(C(F)(F)F)C(F)(F)F)N1CCC2(CCCN2Cc2ccc(Cl)cc2N2CC3COCC3C2)CC1` (stereo not drawn) [Example 108, 1,1,1,3,3,3-Hexafluoropropan-2-yl 1-(4-chloro-2-(tetrahydro-1H-furo[3,4-c]pyrrol-5(3H)-yl)benzyl)-1,8-diazaspiro[4.5]decane-8-carboxylate]: in assay [1], the “FAAH % Inh 5 mg/kg (mouse)” value is reported as “# (# is < 25%)”. Moreover, the “MAGL % Inh 5 mg/kg (mouse)” value in assay [2] was “### (### is ≥ 75%)”. The “ABHD6 % Inh 5 mg/kg (mouse)” value in assay [3] is “# (# is < 25%)”.
As to `O=C(O)C1CCN(c2cc(C(F)(F)F)ccc2CN2CCC3(CCN(C(=O)OC(C(F)(F)F)C(F)(F)F)CC3)C2)CC1` [Example 119, 1-(2-((8-(((1,1,1,3,3,3-Hexafluoropropan-2-yl)oxy)carbonyl)-2,8-diazaspiro[4.5]decan-2-yl)methyl)-5-(trifluoromethyl)phenyl)piperidine-4-carboxylic acid], the “FAAH % Inh 5 mg/kg (mouse)” value in assay [1] is given as “# (# is < 25%)”. The “MAGL % Inh 5 mg/kg (mouse)” value in assay [2] is given as “### (### is ≥ 75%)”. The “ABHD6 % Inh 5 mg/kg (mouse)” value in assay [3] was “### (### is ≥ 75%)”.
